Reference: patent US20240043442A1, “SELECTIVE ESTROGEN RECEPTOR DEGRADERS AND USES THEREOF” (InventisBio LLC, priority 2016, published 2024)

Experiments:
[1] = Human hepatocyte clearance study; type: in vitro ADME; conditions: pooled cryopreserved human hepatocytes (suspension); for hepatocyte CLint at 1 µM / half-life at 1 µM: human; for hepatocyte CLint at 1 µM: read-out: Human In vitro Clint (μL/min/10^6 cells); for half-life at 1 µM: read-out: Human In vitro T1/2; for CLint scaled at 1 µM: human hepatocytes, scaling factor 2544.3, read-out: Human Scale-up Clint
Method: (§1) The in vitro hepatocyte clearance of compound described here was studied using pooled human hepatocytes purchased from BioreclamationlVT (Westbury, NY, Cat #X008001, Lot #TQJ). Assay was conducted according to manufacture's instruction. Briefly, mM tock solutions of test compound and positive control (Verapamil) were prepared in 100% DMSO. Thawing media (50 mL) used in the study consists of: 31 mL Williams E medium (GIBCO Cat #12551-032); 15 mL isotonic percoll (GE Healthcare Cat #17-0891-09); 500 uL 100×GlutaMax (GIBCO Cat #35050); 750 uL HEPES (GIBCO Cat #15630-080); 2.5 mL FBS (Corning Cat #35-076-CVR); 50 uL human insulin (GIBCO Cat #12585-014) and 5 uL dexamethasone (NICPBP). Incubation media is made of Williams E medium supplemented with 1×GlutaMax. Thawing medium and supplement incubation medium (serum-free) were placed in a 37° C. water bath for at least 15 minutes prior to use. Compound stock solutions were diluted to 100 μM by combining 198 μt of 50% acetonitrile/50% water and 2 μL of 10 mM stock solution. Verapamil was use as positive control in the assay. Vials of cryopreserved hepatocytes were removed from storage and thawed in a 37° C. water bath with gentle shaking. Contents of the vial were poured into the 50 mL thawing medium conical tube. Vials were centrifuged at 100 g for 10 minutes at room temperature. Thawing medium was aspirated and hepatocytes were re-suspended with serum-free incubation medium to yield ˜1.5×10^6 cells/mL. Hepatocyte viability and density were counted using a Trypan Blue exclusion, and then cells were diluted with serum-free incubation medium to a working cell density of 0.5×10^6 viable cells/mL. Then, a portion of the hepatocytes at 0.5×10^6 viable cells/mL was boiled for 5 min prior to adding to the plate as negative control to eliminate the enzymatic activity so that little or no substrate turnover should be observed. The boiled hepatocytes were used to prepare negative samples. Aliquots of 198 μL hepatocytes were dispensed into each well of a 96-well non-coated plate. The plate was placed in the incubator on an orbital shaker at 500 rpm for approximately 10 minutes. Aliquots of 2 μL of the 100 μM test compound or positive control were added into respective wells of the non-coated 96-well plate to start the reaction. This assay was performed in duplicate. The plate was incubated in the incubator on an orbital shaker at 500 rpm for the designed time points. Twenty-five microliter of contents were transferred and mixed with 6 volumes (150 μL) of cold acetonitrile with IS (200 nM imipramine, 200 nM labetalol and 200 nM diclofenac) to terminate the reaction at time points of 0, 15, 30, 60, 90 and 120 minutes. Samples were centrifuged at 3,220 g for 25 minutes and aliquots of 150 μL of the supernatants was used for LC-MS/MS analysis. For data analysis, all calculations were carried out using Microsoft Excel. Peak areas were determined from extracted ion chromatograms. The in vitro half-life (t1/2) of parent compound was determined by regression analysis of the percent parent disappearance vs. time curve. The in vitro half-life (in vitro t1/2) was determined from the slope value: in vitro t1/2=0.693/k. […] Scaling factors for in vivo intrinsic clearance prediction using human hepatocytes are listed as: liver weight (g liver/kg body weight): 25.7; hepatocyte concentration (10^6 cells/g liver): 99; scaling factor: 2544.3.

pooled human hepatocytes = test: Human hepatocyte clearance study; type: in vitro ADME; conditions: human hepatocytes 0.5x10^6 viable cells/mL, 120 min
Method: as §1

[2] = Mouse PK study (iv 3 mpk, po 30 mpk); type: in vivo, male CD1 mice; conditions: male, CD1, whole blood; for clearance: 3 mg/kg, IV 3 mpk, read-out: Mouse IV 3 mpk CL (converted); for AUC(0-t) / half-life: 30 mg/kg, PO 30 mpk; for AUC(0-t): read-out: Mouse PO 30 mpk AUC last; for half-life: read-out: Mouse PO 30 mpk T½ (converted)
Method: Mouse PK study (iv 3 mpk, and po 30 mpk) was conducted using male CD1 mice (25-33 g) obtained from SLAC Laboratory Animal Co., LTD of Shanghai). Compound is prepared with the following formulation: 5% DMSO, 5% Solutol HS 15 and 9% HPBCD in water. For intravenous (iv) dose at 3 mpk and oral (po) dose at 30 mpk, the compound is formulated at the concentration […] and […], respectively. Compound formulation is freshly made prior to dosing in the morning. Oral dosing is via the use of oral gavage at 10 mL/kg, while iv dosing is via tail vein at 5 mL/kg. Three mice are used for each dosing route per compound per dose. Serial blood sample (30 uL whole blood at each time point) is collected into the K2EDTA tubes via facial vein at the following time points: 5 min (for iv route only), 30 min, 1, 2, 4, 6, 8, 12 and 24 hours. For each blood sample collected, immediately transfer 20 uL blood sample and mix well with 60 uL water in a 96-well plate (whole blood:water=1:3 v/v). Diluted blood samples are stored at −80C freezer until analysis. For analysis, an aliquot of 20 μL sample was added with 200 μL IS (Glipizide, 100 ng/mL) in ACN. The mixture was vortexed for 2 min and centrifuged at 5800 rpm for 10 min. An aliquot of 2 μL supernatant was injected for LC-MS/MS analysis. Compound at 2.0-3000 ng/mL in CD1 mouse diluted blood is used for calibration curve. Pharmacokinetic data are obtained and described in the table below: […]

[3] = tested on: breast cancer cell line MCF-7; test: MCF-7 cell growth study (celltiter-glo luminescent viability assay); type: cell-based, human; conditions: Homo sapiens, MCF7, 144 h, MCF-7 cells, 6 days incubation; read-out: IC50 (nM), cell growth inhibition;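 also: viability read by luminescence after compound exposure, relative to DMSO vehicle-treated wells on the same plate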
Method: Compound activity was analyzed using celltiter-glo luminescent viability assay (Promega #G7572) in breast cancer cell line MCF-7. Cells grown in log phase are trypsinized and seeded into a 96-well cell culture plate at a density of 2×10^3 per well and incubated overnight at 37° C. with 5% CO2 in humidified culture chamber. The next day, compounds were prepared in 100% DMSO and were serially diluted and added into cells in the following final concentrations: 316, 100, 31.6, 10, 3.16, 1, 0.32, 0.1, 0.03, 0.01, 0.003 and 0.001 nM. As a control, same volume and concentration of DMSO vehicle control solution was added to the control wells in each plate. The cells were incubated with compounds at 37° C. culture chamber for 6 days. Promega's celltiter-glo kit was used to analyze the cell viability, according to manufacture's instruction. Briefly, fifty microliter of celltiter-glo reagent was added to each well, plate (covered with aluminum foil) was gently vibrated for 10 min to induce cell lysis at room temperature. Luminescence was measured using a SPECTRAmax i3 reader.

xMCF-7 xenograft tumor = test: Human breast cancer xMCF-7 xenograft efficacy study in mouse; type: in vivo; conditions: for tumor growth inhibition and tumor regression (FIG. 2): 2 mg/kg orally, once daily for 28 days, start at tumor ~250 mm^3
Method: To investigate the in vivo efficacy of SERD compounds described in this application, female nude mice were inoculated with human ER+ breast cancer cells xMCF-7. xMCF-7 cells are derived from MCF-7 (ATCC) tumor grown in the nude mice. Briefly, female balb/c mice (age 6-7 wk) were first inoculated subcutaneously on the back with estrogen pellet (0.5 mg, 60-day release from Innovative Research of America, Cat #SE-121). Two days later, each mouse was inoculated with 5 million xMCF-7 cells, prepared as 0.2 ml cell suspension in 1:1 mix of Eagle's MEM to cell culture media and Matrigel (Corning Cat #354234) for each injection. After tumor size reached ˜235 mm^3, mice with xMCF-7 xenograft tumor are randomized to 10 mice per group and started receiving drug treatment.
In another xMCF-7 study, treatment initiated when tumor reached ˜250 mm^3. Each drug was given at 2 mg/kg orally, once daily for 28 days.

ER [4] = target: T1, ER (Homo sapiens (Human), UniProt P03372); test: MCF-7 ER degradation assay (high content imaging); type: cell-based; conditions: MCF-7 cells, 1 nM compound, DMSO control as baseline; for MCF7 ER Degradation at 4 hr (%): 4 hours treatment; for MCF7 ER Degradation at 24 hr (%): 24 hours treatment
T1 sequence (P03372 whole entry): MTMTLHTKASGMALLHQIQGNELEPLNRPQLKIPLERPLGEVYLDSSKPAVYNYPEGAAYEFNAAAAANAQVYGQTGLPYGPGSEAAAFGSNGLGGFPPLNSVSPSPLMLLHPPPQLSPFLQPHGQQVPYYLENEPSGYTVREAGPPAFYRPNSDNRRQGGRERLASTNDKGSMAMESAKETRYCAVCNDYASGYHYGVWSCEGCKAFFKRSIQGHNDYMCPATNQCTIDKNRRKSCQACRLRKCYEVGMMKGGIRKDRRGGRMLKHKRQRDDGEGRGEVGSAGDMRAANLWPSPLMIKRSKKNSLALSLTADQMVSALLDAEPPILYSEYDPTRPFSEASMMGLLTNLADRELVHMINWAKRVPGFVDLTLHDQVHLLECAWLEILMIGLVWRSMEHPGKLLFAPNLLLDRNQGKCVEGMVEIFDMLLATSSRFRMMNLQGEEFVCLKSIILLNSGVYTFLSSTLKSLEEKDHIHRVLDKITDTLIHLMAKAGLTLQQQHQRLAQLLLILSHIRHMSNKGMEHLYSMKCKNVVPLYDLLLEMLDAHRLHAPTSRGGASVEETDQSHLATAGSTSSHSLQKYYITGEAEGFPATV
Method: The level of ER degradation by SERD described in this patent was analyzed by cell based high content imaging method. […] Then, 1 μL of compound solution (in DMSO) was added to the cells to make a final concentration of 1 nM per each well of treated cells. DMSO at the same final concentration (%) per each well was used to serve as negative control on each plate. After 4 hours or 24 hours of treatment at 37° C. with 5% CO2, the cells were fixed and permeabilized. Media from each well was aspirated and cells were gently washed with 1×PBS for 5 minutes and the wash procedure was repeated 3 times. Cells was then fixed with 4% formaldehyde freshly made in 1×PBS at room temperature for 20 minutes, followed by gentle washing with 1×PBS, 3 times for 5 minute each. The assay plate was incubated with 200 μl of 1×PBS containing 0.2% Triton-X100 for 5 minutes at room temperature, cells were then washed again with 1×PBS 3 times for 5 minutes each. After this, cells were incubated with the blocking buffer (1×PBS with 5% BSA) at room temperature for 1 hour. For immunostaining, blocking buffer was removed and primary anti-ER antibody (ER1D5, Santa Cruz) diluted in blocking buffer (1:400) was added to each well and cells were incubated overnight at 4° C. The next day, cells were washed with 1×PBS for 3 times with 5 minute each. […] Cells were washed with 1×PBS for 3 times with 5 minute each time. Cells were incubated with DAPI (Beyotime; 1 μg/ml) for 10 minutes and washed with 1×PBS for 3 times with 5 minute each time. […] SERD induced ER degradation in the MCF-7 cells were measured using DMSO negative control as the baseline.

ER [5] = target: T1, ER; conditions: intramuscular injection monthly; cited from earlier work

Row | hepatocyte CLint at 1 µM [1] [µL/min/1e6 cells] | half-life at 1 µM [1] [h] | CLint scaled at 1 µM [1] [mL/min/kg] | clearance [2] [mL/min/kg] | AUC(0-t) [2] [µM·h] | half-life [2] [h] | IC50 [3] [nM] | SMILES | Human Hepatocyte Remaining Percentage @ 120 min (%) (pooled human hepatocytes) | tumor growth inhibition and tumor regression (FIG. 2) (xMCF-7 xenograft tumor) | tumor growth inhibition (tumor volume change, FIG. 1) (xMCF-7 xenograft tumor; oral 5 mg/kg or 30 mg/kg once a day for 28 days, fulvestrant 250 mg/kg subcutaneously, start at tumor ~235 mm^3) | MCF7 ER Degradation at 4 hr (%) (ER [4]) | MCF7 ER Degradation at 24 hr (%) (ER [4]) | ER degradation in clinical samples (ER [5]) [%]
1 | 9 | 2.55 | 23 | 19 | 85 | 3.5 | – | C[C@@H]1Cc2c([nH]c3ccccc23)[C@@H](c2c(F)cc(/C=C/C(=O)O)cc2F)N1CC(C)(C)F [AZD9496, reference compound] | 58 | – | – | 17 | 23 | –
2 | – | – | – | – | – | – | 0.26 | C[C@@H]1Cc2c([nH]c3ccccc23)[C@@H](c2c(F)cc(OCCN3CC(CF)C3)cc2Cl)N1CC(C)(F)F [Compound 12] | – | more efficacious than AZD9496 | – | – | – | –

Second part, the molecule before the results:

Row | SMILES | hepatocyte CLint at 1 µM [1] [µL/min/1e6 cells] | half-life at 1 µM [1] [h] | CLint scaled at 1 µM [1] [mL/min/kg] | clearance [2] [mL/min/kg] | AUC(0-t) [2] [µM·h] | half-life [2] [h] | IC50 [3] [nM] | Human Hepatocyte Remaining Percentage @ 120 min (%) (pooled human hepatocytes) | tumor growth inhibition and tumor regression (FIG. 2) (xMCF-7 xenograft tumor) | tumor growth inhibition (tumor volume change, FIG. 1) (xMCF-7 xenograft tumor; oral 5 mg/kg or 30 mg/kg once a day for 28 days, fulvestrant 250 mg/kg subcutaneously, start at tumor ~235 mm^3) | MCF7 ER Degradation at 4 hr (%) (ER [4]) | MCF7 ER Degradation at 24 hr (%) (ER [4]) | ER degradation in clinical samples (ER [5]) [%]
3 | CC/C(=C(/c1ccc(/C=C/C(=O)O)cc1)c1ccc2[nH]ncc2c1)c1ccc(F)cc1Cl [GDC-0810, reference compound] | 24.6 | 0.933 | 63 | 15.3 | 80 | 2.9 | – | 24 | – | – | – | – | –
4 | C[C@@H]1Cc2c([nH]c3ccccc23)[C@@H](c2c(Cl)cc(/C=C/C(=O)O)cc2Cl)N1CC(C)(F)F [Compound 25] | – | – | – | 1.33 | 658 | 62 | 0.8 | – | more efficacious than AZD9496 | more efficacious in vivo than fulvestrant, GDC-0810 and AZD9496 | – | – | –
5 | C[C@]12CC[C@@H]3c4ccc(O)cc4C[C@@H](CCCCCCCCC[S+]([O-])CCCC(F)(F)C(F)(F)F)[C@H]3[C@@H]1CC[C@@H]2O (stereo partly shown) [Fulvestrant, reference compound] | 33 | 0.7 | 86 | – | – | – | – | 12 | – | – | 29 | 15 | ~50
